# According to US12157778B2, “Peptides for activation of cell signaling in osteoprogenitor cells” (The Regents of the University of California, priority 2018, dated 2024):
# Experiments:
# [1] = In vivo anabolic effects, 4-month-old mice, 5 μg/kg s.c. 5×/week for 21 days; conditions: for increase in femoral trabecular bone volume: vs PBS, YLL8 5 μg/kg, hPTH (1-34) 25 μg/kg
# Procedure: FIGS. 10A-10D show the effects of YLL8 on bone formation in vivo. […] All mice received Alizarin red and Calcein at −7 and −2 days before euthanization.
# Four-month-old female and male mice were treated with PBS control, YLL3 at 5 μg/kg, YLL8 at 5 μg/kg, or PTH at 25 μg/kg, sc., 5×/week for 28 days (n=4-6/group). Trabecular bone volume was obtained by micro CT scans at the distal femoral metaphysis. Osteocalcin and CTX-1 were measured at the serum.
# In another similar study to determine whether YLLs would affect bone metabolism in vivo, YLL3 and YLL8 were injected into 4-month-old female and male mice at 5 μg/kg subcutaneously ([…]). hPTH (1-34) was injected s.c. at 25 μg/kg, 5×/week as a positive control. […] Both YLL8 and hPTH (1-34) increased femoral trabecular bone volume by approximately 130% in the female mice, compared to the PBS-treated mice. In the male mice, YLL8 increase femoral trabecular bone volume by approximately 70%, and hPTH (1-34) increased femoral trabecular bone volume by approximately 30% (FIG. 10A). Mineral apposition rate, a parameter corresponding to osteoblast activity, was increased by more than 70% in the females and about 30% in the males, resulting in an overall increase in surface-based bone formation rate (FIGS. 10A, 10B). The anabolic effect of YLLs was confirmed by increased trabecular bone mass measured at the distal femur metaphysis by micro CT and serum level of osteocalcin (FIG. 11).
# [2] = Alendronate-conjugated peptides on bone metabolism in 2-month-old female mice; type: in vivo; conditions: at the two doses used
# Procedure: FIGS. 15A-15C show two-month-old female mice treated with PBS control; YLL3-Aln or YLL8-Aln at 100 […], subcutaneously, once every two weeks for 2 doses; or YLL3-Aln or YLL8-Aln at 500 m/kg, one IV dose. Mice were euthanized at 28 days (n=4-5/group).
# Trabecular bone formation was measured in the distal femoral metaphysis. *, p<0.05 vs PBS. Arrows show double labeled bone surfaces.
# Next, the effects of alendronate-conjugated peptides on bone metabolism were evaluated. Two-month-old female mice were treated with PBS control, YLL3-Ale or YLL8-Ale at 100 μg/kg (25 nmol) or 300 μg/kg (75 nmol), subcutaneously, once every other week, or with one IV dose of 500 μg/kg. Two injections were given per mouse. The total cumulative doses were between 200 and 600 μg/kg/month (25-150 nmol), respectively. Alendronate concentration was approximately 1/10-⅕ of the compound. […] In contrast, YLL8-Ale at the 300 μg/kg×2 SC doses or 500 μg/kg×1 IV dose increased trabecular bone volume by more than 20% (p<0.05 vs. PBS) which was associated with increased trabecular thickness (30%, p<0.05 vs. PBS) (FIG. 15A and FIG. 15B) and number (28%, p<0.05 vs. PBS). Both 100 μg/kg and 300 μg/kg doses of YLL8-Ale increased cortical bone volume by approximately 16% and cortical thickness by approximately 15% (FIG. 15C).
smiles,measurement,setting,value
Cc1ccccc1NC(=O)Nc1ccc(CC(=O)N[C@@H](CCCCNC(=O)CCc2cccnc2)C(=O)N[C@@H](CCCC(=O)O)C(=O)NC2(C(N)=O)CCCCC2)cc1 [YLL8],body weights and visible side-effects,"[1]; 5 μg/kg s.c., daily injection for 21 days",did not change body weights or cause any visible side-effects
Cc1ccccc1NC(=O)Nc1ccc(CC(=O)N[C@@H](CCCNC(N)=O)C(=O)N[C@@H](CCC(=O)O)C(=O)N[C@@H](CO)C(=O)N[C@H](C(=O)NCCOCCOCCNC(=O)CCC(=O)NCCOCCOCCNC(=O)CCC(=O)N[C@@H](CCCCNC(=O)[C@H](N)CSC2CC(=O)N(CC3CCC(C(=O)NCCCC(O)(P(=O)(O)O)P(=O)(O)O)CC3)C2=O)C(N)=O)C(C)C)cc1 (stereo partly shown) [YLL3-Ale],bone formation or bone mass compared to PBS control,[2],failed to achieve statistically significant differences
"CC[C@H](C)[C@H](NC(=O)[C@H](CCC(=O)O)NC(=O)[C@H](CO)NC(=O)[C@@H](NC(=O)[C@@H](N)CO)C(C)C)C(=O)N[C@@H](CCC(N)=O)C(=O)N[C@@H](CC(C)C)C(=O)N[C@@H](CCSC)C(=O)N[C@@H](Cc1cnc[nH]1)C(=O)N[C@@H](CC(N)=O)C(=O)N[C@@H](CC(C)C)C(=O)NCC(=O)N[C@@H](CCCCN)C(=O)N[C@@H](Cc1cnc[nH]1)C(=O)N[C@@H](CC(C)C)C(=O)N[C@@H](CC(N)=O)C(=O)N[C@@H](CO)C(=O)N[C@@H](CCSC)C(=O)N[C@@H](CCC(=O)O)C(=O)N[C@@H](CCCN=C(N)N)C(=O)N[C@H](C(=O)N[C@@H](CCC(=O)O)C(=O)N[C@@H](Cc1c[nH]c2ccccc12)C(=O)N[C@@H](CC(C)C)C(=O)N[C@@H](CCCN=C(N)N)C(=O)N[C@@H](CCCCN)C(=O)N[C@@H](CCCCN)C(=O)N[C@@H](CC(C)C)C(=O)N[C@@H](CCC(N)=O)C(=O)N[C@@H](CC(=O)O)C(=O)N[C@H](C(=O)N[C@@H](Cc1cnc[nH]1)C(=O)N[C@@H](CC(N)=O)C(=O)N[C@@H](Cc1ccccc1)C(=O)O)C(C)C)C(C)C [hPTH (1-34), Teriparatide]",increase in femoral trabecular bone volume,[1]; female mice,approximately 130%
same,increase in femoral trabecular bone volume,[1]; male mice,approximately 30%
